Earlier results, collected in publication PMC8160438, “A Novel Heptapeptide, GPPGPAG Transfers to the Brain, and Ameliorates Memory Dysfunction and Dendritic Atrophy in Alzheimer’s Disease Model Mice” (Frontiers in Pharmacology, 2021).

Details: in vivo, cited from earlier work
Experimental: In Figure 6H, the mean value of GPPGPAG in the cerebral cortex is 2.748 μg/g of tissue at 180 min after p.o. administration of 500 mg/mouse. When 10 mg/kg GPPGPAG is applied per orally, the transferred amount of GPPGPAG in the brain is calculated as 0.598 pmol. […] Identification of the BBB transporting system for GPPGPAG should be done in future.

**Q.** For Gly-Pro, which transport into brain is on record?
**A.** transported into brain

**Q.** For “RPRTRLHTHRNR-NH2 [12-amino acid peptide that crosses the blood-brain barrier]”, which “crossing of the blood-brain barrier” value (po) is on record?
**A.** crosses the blood-brain barrier (BBB) without digestion

**Q.** Which transport into brain does the source give for Tyr-Pro here?
**A.** transported into brain
